Laboratory results: ChEMBL document CHEMBL1201862, “PubChem BioAssay data set” (2004)
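Dose response: 5 concentrations. Exposure: 48 h. Format: 96-well plates. Endpoint: linear interpolation; highest concentration if not reached. Abbreviation: GI50, concentration required for 50% inhibition of growth.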 Activity calls are given as the source filed them. Rule as the data show it: active = GI50 up to about 1.1 µM and inactive = higher.

Experiments:
Experiment in all cases: NCI anticancer screen, dose series, 48 h
786-0 = system: 786-0
A549 = system: A549
HL-60 = system: HL-60
HOP-62 = system: HOP-62
HOP-92 = system: HOP-92
Hs-578T = system: Hs-578T
LOX IMVI = system: LOX IMVI
MDA-MB-231 = system: MDA-MB-231
MDA-MB-435 = system: MDA-MB-435
Malme-3M = system: Malme-3M
OVCAR-3 = system: OVCAR-3
PC-3 = system: PC-3
RPMI-8226 = system: RPMI-8226
RXF 393 = system: RXF 393
SF-268 = system: SF-268
SK-MEL-28 = system: SK-MEL-28
SN12C = system: SN12C
SNB-75 = system: SNB-75
T47D = system: T47D
UACC-257 = system: UACC-257

Structure (SMILES) | GI50 (786-0) | GI50 (A549) | GI50 (HL-60) | GI50 (HOP-62) | GI50 (HOP-92) | GI50 (Hs-578T) | GI50 (LOX IMVI) | GI50 (MDA-MB-231) | GI50 (MDA-MB-435) | GI50 (Malme-3M) | GI50 (OVCAR-3) | GI50 (PC-3) | GI50 (RPMI-8226) | GI50 (RXF 393) | GI50 (SF-268) | GI50 (SK-MEL-28) | GI50 (SN12C) | GI50 (SNB-75) | GI50 (T47D) | GI50 (UACC-257)
O=C(O)C(O)C(O)C(O)C(=O)CO (stereo not given) | > 100 µM (inactive) | > 100 µM (inactive) | > 100 µM (inactive) | > 100 µM (inactive) | > 100 µM (inactive) | > 100 µM (inactive) | > 100 µM (inactive) | > 100 µM (inactive) | > 100 µM (inactive) | > 100 µM (inactive) | > 100 µM (inactive) | > 100 µM (inactive) | > 100 µM (inactive) | > 100 µM (inactive) | > 100 µM (inactive) | > 100 µM (inactive) | > 100 µM (inactive) | > 100 µM (inactive) | > 100 µM (inactive) | > 100 µM (inactive)
N#CC(C#N)=C/C=C/c1c(Cl)cccc1Cl | 1.71 µM (inactive) | 2.75 µM (inactive) | 0.698 µM (active) | 2.74 µM (inactive) | 2.42 µM (inactive) | 1.97 µM (inactive) | 1.73 µM (inactive) | 1.85 µM (inactive) | 2.14 µM (inactive) | 1.73 µM (inactive) | 2.13 µM (inactive) | 1.81 µM (inactive) | 1.78 µM (inactive) | 1.58 µM (inactive) | 1.92 µM (inactive) | 1.64 µM (inactive) | 1.8 µM (inactive) | 2.84 µM (inactive) | 2.24 µM (inactive) | 1.58 µM (inactive)
O=C(O)CCc1c2ccc(=O)c(O)c-2oc2c(O)c(O)ccc12 | 19.4 µM (inactive) | > 100 µM (inactive) | 44.3 µM (inactive) | > 100 µM (inactive) | > 100 µM (inactive) | 14.2 µM (inactive) | 20.1 µM (inactive) | 20.6 µM (inactive) | 17.1 µM (inactive) | 26.4 µM (inactive) | 91.8 µM (inactive) | > 100 µM (inactive) | 32 µM (inactive) | > 100 µM (inactive) | 32.4 µM (inactive) | > 100 µM (inactive) | 15.9 µM (inactive) | 24.9 µM (inactive) | > 100 µM (inactive) | > 100 µM (inactive)
CC1CCC2(NC1)OC1CC3C4CC=C5CC(OC6OC(CO)C(OC7OC(C)C(O)C(O)C7O)C(O)C6OC6OC(C)C(O)C(O)C6O)CCC5(C)C4CCC3(C)C1C2C (stereo not given) | 1.99 µM (inactive) | 3.15 µM (inactive) | 4.41 µM (inactive) | 4.09 µM (inactive) | 3.69 µM (inactive) | 3.87 µM (inactive) | 5.79 µM (inactive) | 3.78 µM (inactive) | 2.04 µM (inactive) | 2.46 µM (inactive) | 1.96 µM (inactive) | 2.09 µM (inactive) | 12.8 µM (inactive) | 4.05 µM (inactive) | 2 µM (inactive) | 1.91 µM (inactive) | 2.24 µM (inactive) | 2.5 µM (inactive) | 7.64 µM (inactive) | 2.64 µM (inactive)
